The values below come from patent US20190076467A1, “ANTIVIRAL CONJUGATES OF P[…] AND ANTIVIRAL DRUG” (priority 2015, published 2019).

The conditions of data set [1]: cited from earlier work.
In data set [2] the test system is Measles. The format is cell-based.
Data set [3] concerns Ebola virus. The data set is classed as cell-based, Ebola Zaire.

The term pKa denotes the pH at which an ionisable group is half protonated.

Turning to `C=C(C)C(=O)O` [methacrylic acid], the pKa in data set [1] is recorded as 6.5.
In the case of `C=CC(=O)O` [acrylic acid], the pKa in data set [1] is listed as 4.5.
In the case of `NC(=O)c1ncn([C@@H]2O[C@H](CO)[C@@H](O)[C@H]2O)n1` [Ribavirin], the “Activity against measles infectivity” value in data set [2] was “no activity”. The “Effect on proliferation of Ebola virus (qRT-PCR cycle number)” value in data set [3] is recorded as “no measurable effect”.
